Results from patent publication US20140005070A1, “MARKERS ASSOCIATED WITH CYCLIN-DEPENDENT KINASE INHIBITORS” (Novartis AG, priority 2011, published 2014).

Legend:
MCL1 = experiment: Dog toxicology study, TaqMan mRNA in white blood cells after CDKI(7): MCL1; assay type: in vivo
Experimental: (§1) As part of a dog toxicology study, CDKI(7) was administered to dogs. White blood cells were harvested and MEPCE, MYC and MCL1 gene expression was assessed as PD markers. mRNA levels of each of these PD markers were measured by TaqMan® at various time points after CDKI(7) treatment.
(§2) The study had three groups of three dogs each. Dogs in Group 1 (#101, #102, and #103) were treated with CDKI(7) at 0.5 mg/kg, dogs in Group 2 (#104, #105, and #106) were treated at 1 mg/kg CDKI(7) and dogs in Group 3 (#107, #108, and #109) were treated at 2 mg/kg CDKI(7). Samples were collected before treatment (0 hour), 3 hours, 7 hours and 24 hours after treatment for a total of 12 samples per group. Blood samples were received frozen in QIAGEN RNA protect® Animal Blood tubes (Cat. # 76554 QIAGEN-Valencia, Calif., USA). RNA samples were extracted using the QIAGEN RNeasy® Protect Animal Blood kit (Cat. # 73224). RNA samples were quantified using the RNA Quant-iT RNA® assay from Invitrogen (Cat. # Q32852 Invitrogen—Grand Island, N.Y., USA) and read on an Invitrogen Qubit fluorometer® (Cat. # Q32857). First strand cDNA synthesis was performed on 500 ng of RNA in a reaction volume of 20 μl using a High Capacity cDNA Reverse Transcription Kit® from Applied Biosystems (Cat. # 4368814 Applied Biosystems, Carlsbad, Calif., USA). The cDNA samples were then diluted to obtain a 10 ng cDNA input for the TaqMan® reaction. TaqMan® reactions were run in triplicates using a TaqMan® Gene Expression Master Mix from Applied Biosystems (Cat. # 4369016) on an ABI 7500® machine. The 18S rRNA level was used as an endogenous control for variations in cDNA input. The relative quantification method was used to analyze the data; this method uses one sample as a calibrator sample and express mRNA levels relative to that sample. The results were expressed as RQ values (Relative Quantification) with RQ Min and RQ Max values determining a 95% confidence interval for the real RQ value. The samples were grouped according to the dose and each group was treated as a separate experiment with one of the pre-dose samples used as a calibrator sample. The logarithm of the RQ values are plotted so that increases or decreases from the initial value can be more easily represented; on a logarithmic scale: a 10-fold increase or 10-fold decrease in RQ value are represented as +1 and −1 respectively.
The MCL1 gene encodes a pro-survival factor that is often amplified in cancer and we have previously shown that its mRNA is short-lived and sensitive to CDK9 inhibition (see FIG. 2). The mRNA levels were determined by TaqMan® using the relative quantification method. The calibrator samples are dog #101 at 0 hour timepoint for the 0.5 mg/kg dose of CDKI(7), dog #104 at 0 hour timepoint for the 1 mg/kg dose and dog #107 at 0 hour timepoint for the 2 mg/kg dose. The logarithm (base 10) of the RQ values is plotted with the error bars representing the 95% confidence interval.

MYC = experiment: Dog toxicology study, TaqMan mRNA in white blood cells after CDKI(7): MYC; assay type: in vivo
Experimental: as §1, §2
The MYC transcription factor is a known oncogene and previous Examples have shown that its mRNA is short-lived and sensitive to CDK9 inhibition (see FIG. 2). The MYC mRNA levels were determined by TaqMan® using the relative quantification method. The calibrator samples are dog #101 at 0 hour timepoint for the 0.5 mg/kg dose of CDKI(7), dog #104 at 0 hour timepoint for the 1 mg/kg CDKI(7) dose and dog #107 at 0 hour timepoint for the 2 mg/kg CDKI(7) dose. The logarithm (base 10) of the RQ values is plotted with the error bars representing the 95% confidence interval.

[1] = tested on: PD markers MEPCE, MCL, MYC, HEXIM, LARP7 and WHSC2; experiment: Affymetrix U133-Plus-2 microarray gene expression profiling of CDKI treated cell lines; assay type: cell-based; settings: A375 cells, FIG. 2
Experimental: Five cell lines were analyzed: NCI-H929, a multiple myeloma cell line (ATCC Cat. # CRL-9068); NCI-H441, a lung papillary adenocarcinoma cell line (ATCC Cat. # HTB-174); A375, a melanoma cell line (ATCC Cat. # CRL-1619); A2058, a melanoma cell line (ATCC Cat. #CRL-1147) and U-87-MG, a glioblastoma cell line (ATCC Cat. #HTB-14). Cell lines were grown in the medium recommended by ATCC and treated as follows:
NCI-H441 and A375: 0 timepoint: Untreated, harvested when compound is added to the other plates.
2 hours: DMSO, 200 nM CKDI(8) or 500 nM CKDI(8) or 500 nM CKDI(7) (3 plates each, total 12 plates).
8 hours: DMSO, 200 nM CKDI(8) or 500 nM CKDI (8) or 500 nM CKDI(7) (3 plates each, total 12 plates).
16 hours: DMSO, 200 nM CKDI(8) or 500 nM CKDI(8) or 500 nM CKDI(7) (3 plates each, total 12 plates). […]
An average expression level was determined for each probeset at each time-point and treatment condition by computing the geomean expression level across replicate tumors. […] The p-value was determined by a two-tailed t-test assuming unequal variances (Satterwaithe's approximation). […]
This is shown in FIG. 2, where A375 cells that are sensitive to CDKI were treated with CDKI(7) and the reduction of gene expression was determined at 2, 8 and 16 hours of treatment.

[2] = 2 mg/kg, at 3 hours, all three dogs

For `O=C(Nc1cc(-c2cccc(NCC3CCOCC3)n2)c(Cl)cn1)[C@@H]1CCCNC1` [CDKI(7)], the “MCL1 mRNA regulation” value (MCL1; 0.5 mg/kg) was “no significant down regulation”, the “increase of MCL1 mRNA” value (MCL1; 1 mg/kg, 7 hour time point, two out of three dogs) was 2 fold and the “MCL1 down regulation at 7 hours” value (MCL1; 2 mg/kg, 7 hours) was “not at 7 hours”. The “MCL1 mRNA regulation” value (MCL1; 2 mg/kg, FIG. 8) was “consistent down regulation”, the “maximum down regulation of MCL1 mRNA” value (MCL1; [2]) was 2.7 fold and the “MYC mRNA regulation” value (MYC; 0.5 mg/kg) was “no significant down regulation”. The “increase of MYC mRNA” value (MYC; 1 mg/kg, 3 or 7 hour time points) was 2 fold, the “MYC mRNA regulation” value (MYC; 2 mg/kg, FIG. 7) was “consistent down regulation” and the “maximum down regulation of MYC mRNA” value (MYC; [2]) was 3.8 fold. The “dogs showing MYC down regulation” value (MYC; 2 mg/kg, at 7 hours) was 2 out of three, the “MYC mRNA levels by 24 hours” value (MYC; all doses, 24 hours) was “trended back to pre-treatment levels” and the “expression of the PD markers MEPCE, MCL, MYC, HEXIM, LARP7 and WHSC2” value ([1]; microarray, 2, 8 and 16 hours of treatment) was “reduced”. For the same molecule, the “time point of greatest amount of reduction of MEPCE expression” value ([1]; microarray) was 8 h.
